Laboratory results taken from patent US5719287A, “Intermediates for inhibitors of HIV protease and method of preparation thereof” (Eli Lilly and Company, priority 1995, dated 1998).

What was measured:
HIV-1 protease [1] = molecular target: T1, HIV-1 protease (Human immunodeficiency virus type 1 group M subtype B, UniProt P04585); test: Western Blot Analysis of HIV Protease Inhibition Assay (HIV-1 protease produced in E. coli, processing of gag polyprotein Pr48^gag); type: biochemical; conditions: yield of p17 from gag polyprotein; 30 min preincubation at room temperature, one hour at 37° C.
T1 construct: Purified HIV-1 protease was obtained as described below; made in house; host or cells: E. coli K12 L507/pHP10D (NRRL B-18560)
Method: The compounds of the present invention were also tested for their ability to block HIV protease processing of Pr48^gag (a recombinant polyprotein containing p 17, p24 and p7).
A. Culture of E. coli K12 L507/DHP10D
Lyophils of E. coli K12 L507/pHP10D are obtained from the Northern Regional Research Laboratory, Peoria, Ill. 61604, under the accession number NRRL B-18560 (deposited Nov. 14, 1989). The lyophils are decanted into tubes containing 10 ml LB medium (10 g Bacto-tryptone, 5 g Bacto-yeast extract, and 10 g NaCl per liter; pH is adjusted to 7.5) and incubated at 32° C., overnight.
A small portion of the overnight culture was placed on LB-agar (LB medium with 15 g/l Bacto-agar) plates containing 12.5 μg/ml tetracycline in a manner so as to obtain a single colony isolate of E. coli K12 L507/pHP10D.The single colony obtained was inoculated into 10 ml of LB medium containing 12.5 μg/ml tetracycline and incubated overnight at 32° C. with vigorous shaking. The 10 ml overnight culture was inoculated into LB medium containing 12.5 μg/ml tetracycline and incubated at 32° C. with vigorous shaking until the culture reached mid-log phase.
B. Culture of E. coli K12 L507/pHGAG
Lyophils of E. coli K12 L507/pHGAG are obtained from the NRRL under the accession number NRRL B-18561 (deposited Nov. 14, 1989). A purified colony of E. coli K 12 L507/pHGAG was isolated, and used as an inoculum for a culture which was grown to mid-log phase in substantial accordance with the teaching of Step A above for E. Coli K12 L507/pHP10D.
C. Preparation of Protease and gag fractions
A culture of E. coli K12 L507/pHP10D was grown to mid-log phase at 32° C. in LB media containing 12.5 μg/ml tetracycline. The cultivation temperature was quickly elevated to 40° C. to induce gene expression, and the cells were allowed to grow for 2.5 hours at this temperature before the culture was quickly chilled on ice. The cells were centrifuged and the cell pellet was resuspended in 20 ml 50 mmol MES buffer (pH 6.0) containing 1 mmol EDTA, 1 mmol DTT, 1 mmol PMSF, and 10% glycerol (Buffer A). Cells were lysed by sonication using a Fischer Model 300 Dismembrator and a microtip probe. […] Enzymatic activity was measured by HPLC using the synthetic peptide SQNYPIV as described in Margolin et al., Biochem. Biophys. Res. Commun., 167, 554-560 (1990); the production of the pl peptide (SQNY) was measured.
Active fractions were pooled, made 1.2M in ammonium sulfate, and applied to a hexyl agarose column (2.0×18 cm) equilibrated in Buffer A containing 1.2M ammonium sulfate. The sample, in 125 ml (1.85 mg/ml), was loaded at a flow rate of 1 ml/min at 4° C. […] The column was then washed isocratically in Buffer A for 120 min. Active fractions were pooled, concentrated to 10 ml using an Amicon stirred cell with a YM-10 membrane, and applied at 1 ml/min to a MonoS cation exchange column (1.0×10 cm) equilibrated in Buffer A. After washing isocratically for 30 min, protease was eluted using a linear gradient of 0-0.45M NaCl in Buffer A over 40 min followed by an isocratic wash with Buffer A containing 0.45M NaCl over 30 min. Chromatography was performed at 25° C.
Pooled active fractions were concentrated to 200 ul using an Amicon stirred cell and a YM-10 membrane, and the protease was then applied to a Superose 6 size exclusion column equilibrated in Buffer A containing 0.1M NaCl. The column was washed isocratically in this buffer at a flow rate of 0.5 ml/min.
QAE-Sepharose, and hexyl agarose were purchased from Sigma Chemical Company. Superose 6 and MonoS were products of Pharmacia. Buffers and reagents were obtained from Sigma.
In an analogous manner, a culture of E. coli K12 507/pHGAG was grown to mid-log phase at 32° C. then shifted to 40° C. for about 4 to 5 hours. The culture was chilled on ice and centrifuged, then the pellet was resuspended in 8 ml lysis buffer containing 5 mg/ml lysozyme.

HIV-1 protease [2] = molecular target: T1, HIV-1 protease; test: biochemical; conditions: for IC50: read-out: Fluorescence Assay IC50 (converted)
Outline: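 Purified recombinant HIV-1 protease from E. coli preincubated 1 h at room temperature with compound in 20% aqueous DMSO, then biotin-peptide-FITC substrate added in MES-ALB buffer for 16 h at room temperature. Cleavage measured by avidin-bead capture, fluorescence ex 485/em 535 nm.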

[3] = purified HIV-1 protease, MES-ALB buffer pH 5.5, 1 h preincubation, 16 h with substrate, room temperature, IC50 values for Examples 2-70 are standardized relative to Ex 1

| Compound | IC50 (HIV-1 protease [1]) [nM] | IC50 (HIV-1 protease [2]; [3]) [nM] | IC50 (HIV-1 protease [2]) [nM] | Fluorescence Assay IC50 (HIV-1 protease [2]; [3]) [ng/mL] |
| --- | --- | --- | --- | --- |
| Cc1ccc(C[C@@H](O)[C@H](Cc2ccccc2)NC(=O)[C@H](CC(N)=O)NC(=O)c2ccc3ccccc3n2)c(C(=O)NC(C)(C)C)c1 [Example 2, [1S-(1R*, 4R*, 5S*)]-N-(1-(2-amino-2-oxoethyl)-2-oxo-3-aza-4-phenylmethyl-5-hydroxy-6-(2-(1-t-butylamino-1-oxomethyl)-4-methylphenyl)hexyl)-2-quinolinyl carboxamide] | 50 | 3.37 |  |  |
| Cc1cccc(C[C@@H](O)[C@H](Cc2ccccc2)NC(=O)[C@H](CC(N)=O)NC(=O)c2ccc3ccccc3n2)c1C(=O)NC(C)(C)C [Example 3, [1S-(1R*, 4R*, 5S*)]-N-(1-(2-amino-2-oxoethyl)-2-oxo-3-aza-4-phenylmethyl-5-hydroxy-6-(2-(1-t-butylamino-1-oxomethyl)-3-methylphenyl)hexyl)-2-quinolinyl carboxamide] | 60 |  | 28.9 |  |
| CC(C)(C)NC(=O)c1c(C[C@@H](O)[C@H](Cc2ccccc2)NC(=O)[C@H](CC(N)=O)NC(=O)c2ccc3ccccc3n2)ccc2ccccc12 [Example 4, [1S-(1R*, 4R*, 5S*)]-N-(1-(2-amino-2-oxoethyl)-2-oxo-3-aza-4-phenylmethyl-5-hydroxy-6-(1-(1-t-butylamino-1-oxomethyl)-2-naphthyl)hexyl)-2-quinolinyl carboxamide] | 2.7 |  | 4.4 |  |
| CCC(C)(C)NC(=O)c1ccccc1C[C@@H](O)[C@H](Cc1ccccc1)NC(=O)[C@H](CC(N)=O)NC(=O)c1ccc2ccccc2n1 [Example 8, [1S-(1R*, 4R*, 5S*)]-N-(1-(2-amino-2-oxoethyl)-2-oxo-3-aza-4-phenylmethyl-5-hydroxy-6-(2-(1-(1.1-dimethylpropylamino)-1-oxomethyl)phenyl)hexyl)-2-quinolinyl carboxamide] | 1.5 |  | 4.81 |  |
| CC(C)(C)NC(=O)c1ccccc1C[C@@H](O)[C@H](Cc1ccccc1)NC(=O)[C@H](CC(N)=O)NC(=O)c1nccc2ccccc12 [Example 13] | 9 | 13.1 |  |  |
| CC(C)(C)NC(=O)c1ccccc1C[C@@H](O)[C@H](Cc1ccccc1)NC(=O)[C@H](CC(N)=O)NC(=O)c1nc2ccccc2[nH]1 [Example 14, [1S-(1R*, 4R*, 5S*)]-N-(1-(2-amino-2-oxoethyl)-2-oxo-3-aza-4-phenylmethyl-5-hydroxy-6-(2-(1-t-butylamino-1-oxomethyl)phenyl)hexyl)-2-benzimidazolyl carboxamide] | 100 |  | 142 |  |
| CC(C)(C)NC(=O)c1ccccc1C[C@@H](O)[C@H](Cc1ccccc1)NC(=O)[C@H](CC(N)=O)NC(=O)COc1cccc2ccccc12 [Example 15, [2R-(2R*, 3S*, 6S*)]-N-t-butyl-2-(2-hydroxy-3-phenylmethyl-4,7-diaza-5,8,-dioxo-6-(2-amino-2-oxoethyl)-9-(naphthyloxy)nonyl)benzamide] | 1.6 | 4.23 |  |  |
| CC(C)[C@H](NC(=O)c1ccc2ccccc2n1)C(=O)N[C@@H](Cc1ccccc1)[C@H](O)Cc1ccccc1C(=O)NC(C)(C)C [Example 16, [1S-(1R*, 4R*, 5S*)]-N-(1-(2-propyl)-2-oxo-3-aza-4-phenylmethyl-5-hydroxy-6-(2-(1-t-butylamino-1-oxomethyl)phenyl)hexyl)-2-quinolinyl carboxamide] | 1 |  | 57.2 |  |
| CC(C)(C)NC(=O)c1ccccc1C[C@@H](O)[C@H](Cc1ccccc1)NC(=O)[C@H](Cc1cnc[nH]1)NC(=O)c1ccc2ccccc2n1 [Example 17, [1S-(1R*, 4R*. 5S*)]-N-(1-(4-imidazolylmethyl)-2-oxo-3-aza-4-phenylmethyl-5-hydroxy-6-(2-(1-t-butylamino-1-oxomethyl)phenyl)hexyl)-2-quinolinyl carboxamide] | 0.5 |  | 1.9 |  |
| CC(C)c1ccc(C(=O)NC(C)(C)C)c(C[C@@H](O)[C@H](Cc2ccccc2)NC(=O)[C@H](CC(N)=O)NC(=O)c2ccc3ccccc3n2)c1 [Example 68, [1S-(1R*, 4R*, 5S,)]-N-(1-(2-amino-2-oxoethyl)-2-oxo-3-aza-4-phenylmethyl-5-hydroxy-6-(2-(1-t-butylamino-1-oxomethyl)-5-isopropylphenyl)hexyl)-2-quinolinyl carboxamide] |  |  | 0.23 |  |
| CC1(NC(=O)c2ccccc2C[C@@H](O)[C@H](Cc2ccccc2)NC(=O)[C@H](CC(N)=O)NC(=O)c2ccc3ccccc3n2)CCCC1 [Example 69, [1S-(1R*, 4R*, 5S*) ]-N-(1-(2-amino-2-oxoethyl) -2-oxo-3-aza-4-phenylmethyl-5-hydroxy-6-(2-(1-(1-methylcyclopent-1-yl)amino-1-oxomethyl)phenyl)hexyl)-2-quinolinyl carboxamide] |  |  | 1.2 |  |
| CC(C)(C)NC(=O)c1ccccc1C[C@@H](O)[C@H](Cc1ccccc1)NC(=O)[C@H](CC(=O)NCc1c[nH]c2ccccc12)NC(=O)c1ccc2ccccc2n1 [Example 70, [1S-(1R*, 4R*, 5*)]-N-(1-(2-(N-indol-3-ylmethyl)amino)-2-oxoethyl)-2-oxo-3-aza-4-phenylmethyl-5-hydroxy-6-(2-(1-t-butylamino-1-oxomethyl)phenyl)hexyl)-2-quinolinyl carboxamide] |  |  | 0.785 |  |
| [1S-(1R*, 4R*, 5S*)]-N-(1-(2-amino-2-oxoethyl)-2-oxo-3-aza-4-phenylmethyl-5-hydroxy-6-(2- (1-t-butylamino-1-oxomethyl)phenyl)hexyl)-2(6, 7, 8, 9-tetrahydronaphthyl) carboxamide [Example 33] |  |  |  | 1.4 |
